Measurements published in PubChem BioAssay (NCI).
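Grown in 96-well plates, cells were treated for 48 hours with each compound at five concentrations. Insufficient inhibition: endpoint recorded as highest concentration tested. At the GI50, growth is halved. The concentration for full growth arrest is given as TGI.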

How the values were obtained:
Test in all cases: NCI anticancer screen, dose series, 48 h
T-47D breast = system: T-47D breast
HOP-62 NSCLC = system: HOP-62 NSCLC
HT29 colon = system: HT29 colon
ACHN renal = system: ACHN renal
NCI-H522 lung = system: NCI-H522 lung
MOLT-4 leukemia = system: MOLT-4 leukemia
DU-145 prostate = system: DU-145 prostate
SR leukemia = system: SR leukemia
SF-539 CNS = system: SF-539 CNS
OVCAR-8 ovarian = system: OVCAR-8 ovarian
HL-60(TB) leukemia = system: HL-60(TB) leukemia
NCI/ADR-RES ovarian = system: NCI/ADR-RES ovarian
K-562 leukemia = system: K-562 leukemia
MALME-3M melanoma = system: MALME-3M melanoma
KM12 colon = system: KM12 colon
HS 578T breast = system: HS 578T breast
MCF7 breast = system: MCF7 breast
UO-31 renal = system: UO-31 renal
CCRF-CEM leukemia = system: CCRF-CEM leukemia
A549 NSCLC = system: A549 NSCLC
PC-3 prostate = system: PC-3 prostate
OVCAR-4 ovarian = system: OVCAR-4 ovarian
SK-OV-3 ovarian = system: SK-OV-3 ovarian
A498 renal = system: A498 renal
COLO 205 colon = system: COLO 205 colon
OVCAR-3 ovarian = system: OVCAR-3 ovarian
SK-MEL-2 melanoma = system: SK-MEL-2 melanoma
CAKI-1 renal = system: CAKI-1 renal

Compound: CCO/C=N/C1=C(C#N)C(c2ccc(OC)cc2)c2sc3c(F)cccc3c2O1 (stereo unspecified)
- GI50 (T-47D breast): 3.51 µM
- TGI (T-47D breast): > 100 µM
- GI50 (HOP-62 NSCLC): 2900 nM
- TGI (HOP-62 NSCLC): 47.5 µM
- GI50 (HT29 colon): 3.23 µM
- TGI (HT29 colon): 16.6 µM
- GI50 (ACHN renal): 5.57 µM
- TGI (ACHN renal): > 100 µM
- GI50 (NCI-H522 lung): 569 nM
- TGI (NCI-H522 lung): 3.84 µM
- GI50 (MOLT-4 leukemia): 2800 nM
- TGI (MOLT-4 leukemia): 13.5 µM
- GI50 (DU-145 prostate): 3.57 µM
- TGI (DU-145 prostate): 57.2 µM
- GI50 (SR leukemia): 1040 nM
- TGI (SR leukemia): 17.5 µM
- GI50 (SF-539 CNS): 2180 nM
- TGI (SF-539 CNS): 6.28 µM
- GI50 (OVCAR-8 ovarian): 4.06 µM
- TGI (OVCAR-8 ovarian): > 100 µM
- GI50 (HL-60(TB) leukemia): 2000 nM
- TGI (HL-60(TB) leukemia): 5.5 µM
- GI50 (NCI/ADR-RES ovarian): 1250 nM
- TGI (NCI/ADR-RES ovarian): 5.03 µM
- GI50 (K-562 leukemia): 537 nM
- TGI (K-562 leukemia): > 100 µM
- GI50 (MALME-3M melanoma): 11.3 µM
- TGI (MALME-3M melanoma): > 100 µM
- GI50 (KM12 colon): 2520 nM
- TGI (KM12 colon): 72 µM
- GI50 (HS 578T breast): 2110 nM
- TGI (HS 578T breast): 7.93 µM
- GI50 (MCF7 breast): 1440 nM
- TGI (MCF7 breast): 50.9 µM
- GI50 (UO-31 renal): 4.03 µM
- TGI (UO-31 renal): > 100 µM
- GI50 (CCRF-CEM leukemia): 2690 nM
- TGI (CCRF-CEM leukemia): 28.7 µM
- GI50 (A549 NSCLC): 2220 nM
- TGI (A549 NSCLC): > 100 µM
- GI50 (PC-3 prostate): 2860 nM
- TGI (PC-3 prostate): > 100 µM
- GI50 (OVCAR-4 ovarian): 5.59 µM
- TGI (OVCAR-4 ovarian): > 100 µM
- GI50 (SK-OV-3 ovarian): 4.67 µM
- TGI (SK-OV-3 ovarian): > 100 µM
- GI50 (A498 renal): 2180 nM
- TGI (A498 renal): 7.8 µM
- GI50 (COLO 205 colon): 3.33 µM
- TGI (COLO 205 colon): 15 µM
- GI50 (OVCAR-3 ovarian): 2200 nM
- TGI (OVCAR-3 ovarian): 9.7 µM
- GI50 (SK-MEL-2 melanoma): 3.8 µM
- TGI (SK-MEL-2 melanoma): 78.3 µM
- GI50 (CAKI-1 renal): 3.3 µM
- TGI (CAKI-1 renal): > 100 µM
